Assay results reported in paper PMC4535766, “Antiprotozoal Activity Profiling of Approved Drugs: A Starting Point toward Drug Repositioning” (PLoS ONE, 2015).
Counter-ions that a name gives are not always drawn. Like-named read-outs stand apart in the source and are kept apart here.

Tests used:
[1] = tested on: axenic amastigotes of L. donovani, strain MHOM-ET-67/L82; test: In vitro activity against L. donovani axenic amastigotes, serial drug dilution assay; format: cell-based, Leishmania donovani; conditions: Leishmania donovani
Protocol: (§1) Drug stock solutions (10mg/ml) were in DMSO (100%). […] Selectivity index (SI) was calculated as IC50 L6 cells/IC50 parasite.

[2] = tested on: T. cruzi, strain Tulahuen C4, intracellular amastigotes; test: microbe, parasite or virus in culture; conditions: for IC50: Trypanosoma cruzi, TULAHUEN; for selectivity ratio: Selectivity index: IC50 Cytotoxicity L6/ IC50 T. cruzi
Protocol: as §1

in vitro = conditions: rat
Protocol: as §1

[3] = tested on: intracellular amastigotes of L. donovani strain MHOM-ET-67/L82; test: Activity against Leishmania donovani intracellular amastigotes in mouse peritoneal macrophages; conditions: Leishmania donovani, Peritoneal macrophage, in Mus musculus
Protocol: After 24 h 1.2 x 10^5 amastigote L. donovani in 100 μl were added. The amastigotes were taken from an axenic culture grown at pH 5.4. Four hours later, the medium containing free amastigote forms was removed and replaced by fresh medium. The next day the medium was replaced by medium with or without a serial drug dilution of seven 3-fold dilution steps covering a range from 30 to 0.04 μg/ml. Parasite growth in the presence of the drug was compared to control wells. After 96 h of incubation, the medium was removed and the slides fixed with methanol for 10 min followed by staining with a 10% Giemsa solution. Infected and non-infected macrophages were counted for the control cultures and those exposed to the serial drug dilutions. The infection rates were determined. The results were expressed as a percentage reduction in parasite burden compared to control wells, and the IC50 was calculated by linear regression analysis. The collection of mouse peritoneal macrophages was done at the Swiss Tropical and Public Health Institute (Basel) according to the rules and regulations for the protection of animal rights ("Tierschutzverordnung") of the Swiss "Bundesamt für Veterinärwesen".

P. falciparum strain K1 = test: In vitro activity against P. falciparum, serial drug dilution assay; conditions: for IC50: Plasmodium falciparum; for selectivity ratio: rat
Protocol: as §1

[4] = Cytotoxicity on macrophages infected with L. donovani; format: cell-based, mouse; conditions: mouse
[5] = tested on: T. b. rhodesiense strain STIB 900, trypomastigotes; test: In vitro activity against T. b. rhodesiense, serial drug dilution assay; conditions: for IC50: Trypanosoma brucei; for Activity against T. b. rhodesiense (in words): in vitro
Protocol: as §1

[6] = axenic amastigotes, strain MHOM-ET-67/L82, means of two independent assays, read-out: IC50 L. don. axen.
[7] = 96 h, read-out: IC50 L. don. intracell
[8] = macrophages infected with L. donovani, read-out: IC50 Cytotox. mac.inf.
[9] = L. donovani axenic amastigotes, read-out: L. don. axen. IC50
[10] = read-out: L. don. intracell IC50
[11] = Selectivity index: IC50 Cytotoxicity L6/ IC50 P. falciparum
[12] = infected macrophages, read-out: Cytotox. mac.inf. IC50
[13] = L6 cells, IC50 Cytotox. L6, L6 cells, means of two independent assays
[14] = mouse peritoneal macrophages infected with L. donovani, macrophages infected with L. donovani, read-out: IC50 Cytotox. mac.inf.
[15] = rat, L6 cells versus T. b. rhodesiense STIB 900 trypomastigotes

SMILES	IC50 [1, 6] [µM]	IC50 ([2]; read-out: IC50 T. cruzi) [µM]	IC50 (in vitro; IC50 Cytotox. L6) [µM]	IC50 [3, 7] [µM]	IC50 (P. falciparum strain K1; K1, read-out: IC50 P. falc. K1) [µM]	IC50 at 96 h [4, 8] [µM]	IC50 ([5]; read-out: IC50 T. b. rhod.) [µM]	IC50 (in vitro; [13]) [µM]	other results
CCN(CCCCOC(=O)c1ccc(OC)c(OC)c1)C(C)Cc1ccc(OC)cc1 (stereo not drawn) [Mebeverine]	> 210	3.89	70.8	54.9	1.74	> 69.8	54.2	–	selectivity ratio ([2]; rat): 18
OC(c1cc(C(F)(F)F)nc2c(C(F)(F)F)cccc12)C1CCCCN1 (stereo not drawn) [Mefloquine (Hydrochloride), Mefloquine]	–	–	3.25	–	0.002	–	–	–	IC50 [1, 9]: 38.6 µM; IC50 ([2]; read-out: T. cruzi IC50): 4.48 µM; IC50 [3, 10]: 2.41 µM; IC50 (P. falciparum strain K1; K1, read-out: P. falc. IC50): 0.0024 µM; selectivity ratio (P. falciparum strain K1; [11]): 1350; MCC at 96 h [4, 12]: 7.23 µM; IC50 ([5]; read-out: T. b. rhod. IC50): 0.53 µM
Cc1ncc([N+](=O)[O-])n1CCO [Metronidazole]	491	279	339	> 175	277	> 175	338	–	Activity against T. b. rhodesiense (in words) [5]: inactive
CN(C)c1ccc(O)c2c1C[C@H]1C[C@H]3[C@H](N(C)C)C(O)=C(C(N)=O)C(=O)[C@@]3(O)C(O)=C1C2=O [Minocycline]	–	–	–	–	–	–	–	–	IC50 [1, 9]: 45.7 µM; IC50 ([2]; read-out: T. cruzi IC50): 22.3 µM; IC50 (in vitro; Cytotox. L6 IC50): 9.42 µM; IC50 [3, 10]: > 21.9 µM; IC50 (P. falciparum strain K1; K1, read-out: P. falc. IC50): 3.58 µM; IC50 at 96 h [4, 12]: > 21.9 µM; IC50 ([5]; read-out: T. b. rhod. IC50): 36.6 µM
Cc1c(O)cccc1C(=O)N[C@@H](CSc1ccccc1)[C@H](O)CN1C[C@H]2CCCC[C@H]2C[C@H]1C(=O)NC(C)(C)C [Nelfinavir]	9.62	10.2	12.1	20.2	10.4	> 52.8	20.6	–	–
NC(=O)c1cccnc1 [Nicotinamide]	> 737	> 737	> 737	> 246	> 40.9	> 246	> 737	–	–
CNCCC=C1c2ccccc2CCc2ccccc21 [Nortryptyline]	> 342	22.9	–	> 11.4	0.58	38	1.17	–	IC50 (in vitro): 27.9 µM; selectivity ratio (P. falciparum strain K1): 48; Selectivity index: IC50 Cytotoxicity L6/ IC50 T. b. rhodesiense ([5]; rat): 24; selectivity ratio ([5]; rat, Selectivity index: IC50 Cytotoxicity L6/ IC50 T. b. rhodesiense): > 20
COc1ccc2[nH]c([S+]([O-])Cc3ncc(C)c(OC)c3C)nc2c1 (stereo not drawn) [Omeprazole]	90.9	68.3	126	> 86.9	13.2	> 86.9	51.8	–	–
Fc1ccc([C@@H]2CCNC[C@H]2COc2ccc3c(c2)OCO3)cc1 [Paroxetine]	> 273	14.4	13.8	> 9.11	9.23	–	1.13	–	MCC at 96 h [4, 8]: 30.4 µM; selectivity ratio ([5]; rat): 12
Nc1nc2c(ncn2CCC(CO)CO)c(=O)[nH]1 [Penciclovir]	> 395	254	220	> 118	169	> 118	> 395	–	–
Cc1nc2ccccn2c(=O)c1CCN1CCC(C(=O)c2ccc(F)cc2)CC1 [Pirenperone]	162	128	–	> 76.2	4.35	–	30	232	IC50 at 96 h [4, 14]: > 76.2 µM
CN1CCC(=C2c3ccccc3CCc3sccc32)CC1 [Pizotifen]	215	30.6	–	> 33.9	1.86	–	3.99	45	IC50 at 96 h [4, 14]: > 102 µM; selectivity ratio ([5]; rat): 11
CN(C)CCCN1c2ccccc2Sc2ccccc21 [Promazine]	> 316	49.1	–	> 35.2	0.49	> 35.2	2.16	30.1	selectivity ratio (P. falciparum strain K1; L6 cells versus P. falciparum K1, Selectivity index: IC50 Cytotoxicity L6/ IC50 P. falciparum): 61; selectivity ratio [5, 15]: 14
NC(=O)c1cnccn1 [Pyrazinamide]	> 812	565	458	> 244	179	> 244	> 812	–	–
CCc1nc(N)nc(N)c1-c1ccc(Cl)cc1 [Pyrimethamine]	278	5.71	2.51	> 12.1	9.85	> 12.1	6.75	–	–
CO[C@H]1/C=C/O[C@@]2(C)Oc3c(C)c(O)c4c(c3C2=O)C2=NC3(CCN(CC(C)C)CC3)NC2=C(NC(=O)/C(C)=C\C=C\[C@H](C)[C@H](O)[C@@H](C)[C@@H](O)[C@@H](C)[C@H](OC(C)=O)[C@@H]1C)C4=O [Rifabutin]	–	–	–	–	–	–	–	–	IC50 [1, 9]: 56.4 µM; IC50 ([2]; read-out: T. cruzi IC50): 27.5 µM; IC50 (in vitro; Cytotox. L6 IC50): 60.9 µM; IC50 [3, 10]: > 35.4 µM; IC50 (P. falciparum strain K1; K1, read-out: P. falc. IC50): 1.59 µM; IC50 at 96 h [4, 12]: > 35.4 µM; IC50 ([5]; read-out: T. b. rhod. IC50): 12.6 µM; Activity against T. b. rhodesiense (in words) [5]: devoid of antitrypanosomal activity
CO[C@H]1/C=C/O[C@@]2(C)Oc3c(C)c(O)c4c(O)c(c5c(nc6cc(C)ccn65)c4c3C2=O)NC(=O)/C(C)=C\C=C\[C@H](C)[C@H](O)[C@@H](C)[C@@H](O)[C@@H](C)[C@H](OC(C)=O)[C@@H]1C [Rifaximin]	–	–	88	–	0.92	–	–	–	IC50 [1, 9]: 15 µM; IC50 ([2]; read-out: T. cruzi IC50): 40.2 µM; IC50 [3, 10]: > 38.2 µM; selectivity ratio (P. falciparum strain K1; [11]): 96; IC50 at 96 h [4, 12]: > 38.2 µM; IC50 ([5]; read-out: T. b. rhod. IC50): 17.1 µM; Activity against T. b. rhodesiense (in words) [5]: devoid of antitrypanosomal activity
CC(N)C12CC3CC(CC(C3)C1)C2 (stereo not drawn) [Rimantadine]	427	321	–	> 167	0.97	–	13.8	311	Activity against P. falciparum (in words) (P. falciparum strain K1; in vitro): selective activities; selectivity ratio (P. falciparum strain K1; [11]): 321; IC50 at 96 h [4, 14]: > 167 µM; selectivity ratio [5, 15]: 23
CC(C)(C)NC(=O)[C@@H]1C[C@@H]2CCCC[C@@H]2CN1C[C@@H](O)[C@H](Cc1ccccc1)NC(=O)[C@H](CC(N)=O)NC(=O)c1ccc2ccccc2n1 [Saquinavir]	77.4	17.1	18.2	> 44.7	11.9	> 44.7	12.3	–	–
Cc1cn([C@H]2C=C[C@@H](CO)O2)c(=O)[nH]c1=O [Stavudine]	> 446	341	–	> 134	186	–	120	266	IC50 at 96 h [4, 14]: > 134 µM
CN1CC(=O)N2[C@H](c3ccc4c(c3)OCO4)c3[nH]c4ccccc4c3C[C@@H]2C1=O [Tadalafil]	40.1	8.6	221	> 77	> 12.8	> 77	97.6	–	Selectivity index: IC50 Cytotoxicity L6/ IC50 T. cruzi ([2]; rat): 26; selectivity ratio ([2]; rat): > 26
COc1cc(C)c2c(Oc3cccc(C(F)(F)F)c3)c(OC)cc(NC(C)CCCN)c2n1 (stereo not drawn) [Tafenoquine]	17.9	6.11	–	2.16	0.27	–	1.42	5.52	selectivity ratio (P. falciparum strain K1; [11]): 20; IC50 at 96 h [4, 14]: 6.47 µM
CN(C/C=C/C#CC(C)(C)C)Cc1cccc2ccccc12 [Terbinafine (Hydrochloride), Terbinafine]	23	40.9	–	69.5	7.72	–	95.2	47	IC50 at 96 h [4, 14]: > 91.5 µM
Nc1nc(N)c2nc(-c3ccccc3)c(N)nc2n1 [Triamterene]	307	22.7	8.53	> 11.8	17.2	> 11.8	21.7	–	–
CN1CCN(CCCN2c3ccccc3Sc3ccc(C(F)(F)F)cc32)CC1 [Trifluoperazine]	52.9	10.1	–	> 7.36	1.48	24.5	1.23	11	–
